Where a SMILES comes first, the peptide text is derived from it. [ ]: non-standard residue; d: D form. Phe(4-N(CH2CH2Cl)2) = N[C@@H](Cc1ccc(N(CCCl)CCCl)cc1)C(=O)O

The test system of test [1] is Rattus norvegicus. Briefly: The compound was tested in vivo for pressor activity in Rat uterine preparation. It is filed as functional.
The species named for test [2] is Rattus norvegicus. Put plainly: Antagonism against angiotensin II induced contraction in Rat uterine preparation. The format is functional. The note with it: read-out: pA2 (converted).

Regarding `CC[C@H](C)[C@@H](NC(=O)[C@H](Cc1ccc(O)cc1)NC(=O)[C@@H](NC(=O)[C@H](CCCNC(N)N)NC(=O)[C@@H](N)CC(=O)O)C(C)C)[C@@H](C)N[C@@H](Cc1c[nH]cn1)C(=O)N1CCC[C@@H]1C(=O)N[C@@H](Cc1ccc(N(CCCl)CCCl)cc1)C(=O)O`, in the test on Rattus norvegicus [1], the Activity turned out to be 0.3%.

As for `CC[C@H](C)[C@H](NC(=O)[C@H](Cc1ccc(O)cc1)NC(=O)[C@@H](NC(=O)[C@H](CCCN=C(N)N)NC(=O)[C@H](CC(N)=O)NC(C)=O)C(C)C)C(=O)N[C@@H](Cc1c[nH]cn1)C(=O)N1CCC[C@H]1C(=O)N[C@@H](Cc1ccc(N(CCCl)CCCl)cc1)C(=O)O` (Ac-NRVYIHP[Phe(4-N(CH2CH2Cl)2)]-OH), the Kb in the test filed under Rattus norvegicus [2] was 3.16 nM.

Values taken from ChEMBL document CHEMBL1121909, “Alkylating angiotensin II analogues: synthesis, analysis, and biological activity of angiotensin II analogues containing the nitrogen mustard melphalan in position 8” (J Med Chem, 1981).
